Measured values as given in the kinase profiling compilation of Christmann-Franck et al. (2016).

Key:
Assay in all cases: KINOMEscan competition binding
Details in all cases: compound 10.0 µM
ACVR2B (human) = ACVR2B (human) (UniProt Q13705)
BTK (human) = BTK (human) (UniProt Q06187)
CAMK4 (human) = CAMK4 (human) (UniProt Q16566)
CAMKK1 (human) = CAMKK1 (human) (UniProt Q8N5S9)
CDK2 (human) = CDK2 (human) (UniProt P24941)
CDKL5 (human) = CDKL5 (human) (UniProt O76039)
CSNK1A1L (human) = CSNK1A1L (human) (UniProt Q8N752)
EPHA2 (human) = EPHA2 (human) (UniProt P29317)
EPHA8 (human) = EPHA8 (human) (UniProt P29322)
FGR (human) = FGR (human) (UniProt P09769)
GSK3A (human) = GSK3A (human) (UniProt P49840)
HIPK4 (human) = HIPK4 (human) (UniProt Q8NE63)
ITK (human) = ITK (human) (UniProt Q08881)
[1] = target: JAK3 JH1 catalytic (human) (UniProt P52333)
KIT (human) = KIT (human) (UniProt P10721)
LIMK2 (human) = LIMK2 (human) (UniProt P53671)
MAP2K4 (human) = MAP2K4 (human) (UniProt P45985)
MAP3K1 (human) = MAP3K1 (human) (UniProt Q13233)
MAP3K13 (human) = MAP3K13 (human) (UniProt O43283)
MAP3K7 (human) = MAP3K7 (human) (UniProt O43318)
MAP4K1 (human) = MAP4K1 (human) (UniProt Q92918)
MAPKAPK2 (human) = MAPKAPK2 (human) (UniProt P49137)
MARK3 (human) = MARK3 (human) (UniProt P27448)
MKNK1 (human) = MKNK1 (human) (UniProt Q9BUB5)
MYLK2 (human) = MYLK2 (human) (UniProt Q9H1R3)
MYLK3 (human) = MYLK3 (human) (UniProt Q32MK0)
NEK6 (human) = NEK6 (human) (UniProt Q9HC98)
NUAK2 (human) = NUAK2 (human) (UniProt Q9H093)
PDGFRB (human) = PDGFRB (human) (UniProt P09619)
PIM2 (human) = PIM2 (human) (UniProt Q9P1W9)
PKN1 (human) = PKN1 (human) (UniProt Q16512)
PRKCD (human) = PRKCD (human) (UniProt Q05655)
PRKCH (human) = PRKCH (human) (UniProt P24723)
PTK2 (human) = PTK2 (human) (UniProt Q05397)
ROCK2 (human) = ROCK2 (human) (UniProt O75116)
RPS6KA3 KD1 (human) = RPS6KA3 KD1 (human) (UniProt P51812)
RPS6KA4 KD2 (human) = RPS6KA4 KD2 (human) (UniProt O75676)
RPS6KA6 KD1 (human) = RPS6KA6 KD1 (human) (UniProt Q9UK32)

ITK (human), sequence (Q08881 whole entry, looked up): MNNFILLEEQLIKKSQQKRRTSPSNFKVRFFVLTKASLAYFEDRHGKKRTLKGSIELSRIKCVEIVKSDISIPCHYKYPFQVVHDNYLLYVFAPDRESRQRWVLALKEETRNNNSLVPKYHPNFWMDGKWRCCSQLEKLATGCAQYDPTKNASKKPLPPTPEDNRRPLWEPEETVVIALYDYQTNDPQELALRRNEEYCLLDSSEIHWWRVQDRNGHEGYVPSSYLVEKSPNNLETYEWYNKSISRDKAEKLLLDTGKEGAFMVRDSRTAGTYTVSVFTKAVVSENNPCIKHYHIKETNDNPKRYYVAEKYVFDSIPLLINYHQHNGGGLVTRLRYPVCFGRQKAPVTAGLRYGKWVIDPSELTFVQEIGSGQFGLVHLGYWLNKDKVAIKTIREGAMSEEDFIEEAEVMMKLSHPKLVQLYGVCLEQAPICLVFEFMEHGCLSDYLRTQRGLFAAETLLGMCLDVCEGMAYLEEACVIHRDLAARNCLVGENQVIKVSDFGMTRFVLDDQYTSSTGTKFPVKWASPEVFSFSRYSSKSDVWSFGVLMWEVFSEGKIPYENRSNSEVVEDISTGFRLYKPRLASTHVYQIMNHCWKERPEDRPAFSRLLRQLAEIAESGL
LIMK2 (human), sequence (P53671 whole entry, looked up): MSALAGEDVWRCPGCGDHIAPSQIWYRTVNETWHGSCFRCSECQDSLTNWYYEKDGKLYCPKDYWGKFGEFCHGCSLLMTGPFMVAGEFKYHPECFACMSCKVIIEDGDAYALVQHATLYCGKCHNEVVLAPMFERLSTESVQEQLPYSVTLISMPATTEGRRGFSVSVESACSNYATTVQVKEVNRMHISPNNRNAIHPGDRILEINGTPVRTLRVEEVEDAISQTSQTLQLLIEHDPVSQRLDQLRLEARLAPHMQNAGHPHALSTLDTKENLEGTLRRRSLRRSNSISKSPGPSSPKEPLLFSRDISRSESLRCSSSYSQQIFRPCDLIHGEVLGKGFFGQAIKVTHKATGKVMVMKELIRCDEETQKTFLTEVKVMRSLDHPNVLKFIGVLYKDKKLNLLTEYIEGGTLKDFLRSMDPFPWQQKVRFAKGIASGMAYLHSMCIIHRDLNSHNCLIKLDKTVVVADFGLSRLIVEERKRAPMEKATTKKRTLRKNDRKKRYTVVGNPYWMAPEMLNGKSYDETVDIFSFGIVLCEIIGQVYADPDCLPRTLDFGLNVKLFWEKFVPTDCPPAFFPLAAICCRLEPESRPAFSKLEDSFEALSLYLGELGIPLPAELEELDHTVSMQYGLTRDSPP
CAMK4 (human), sequence (Q16566 whole entry, looked up): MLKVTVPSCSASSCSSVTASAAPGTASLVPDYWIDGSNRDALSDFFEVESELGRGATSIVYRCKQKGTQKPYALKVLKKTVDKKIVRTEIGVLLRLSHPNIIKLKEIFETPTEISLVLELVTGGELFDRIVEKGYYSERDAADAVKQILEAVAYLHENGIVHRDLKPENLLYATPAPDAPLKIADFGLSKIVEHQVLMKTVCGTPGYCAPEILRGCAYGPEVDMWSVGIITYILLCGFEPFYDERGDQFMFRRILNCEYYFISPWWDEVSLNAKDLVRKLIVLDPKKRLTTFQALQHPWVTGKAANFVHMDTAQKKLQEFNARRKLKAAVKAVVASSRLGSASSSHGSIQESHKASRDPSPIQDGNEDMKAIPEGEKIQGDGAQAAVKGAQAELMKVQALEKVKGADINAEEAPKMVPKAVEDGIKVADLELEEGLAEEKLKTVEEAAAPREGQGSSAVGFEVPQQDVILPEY
PRKCH (human), sequence (P24723 whole entry, looked up): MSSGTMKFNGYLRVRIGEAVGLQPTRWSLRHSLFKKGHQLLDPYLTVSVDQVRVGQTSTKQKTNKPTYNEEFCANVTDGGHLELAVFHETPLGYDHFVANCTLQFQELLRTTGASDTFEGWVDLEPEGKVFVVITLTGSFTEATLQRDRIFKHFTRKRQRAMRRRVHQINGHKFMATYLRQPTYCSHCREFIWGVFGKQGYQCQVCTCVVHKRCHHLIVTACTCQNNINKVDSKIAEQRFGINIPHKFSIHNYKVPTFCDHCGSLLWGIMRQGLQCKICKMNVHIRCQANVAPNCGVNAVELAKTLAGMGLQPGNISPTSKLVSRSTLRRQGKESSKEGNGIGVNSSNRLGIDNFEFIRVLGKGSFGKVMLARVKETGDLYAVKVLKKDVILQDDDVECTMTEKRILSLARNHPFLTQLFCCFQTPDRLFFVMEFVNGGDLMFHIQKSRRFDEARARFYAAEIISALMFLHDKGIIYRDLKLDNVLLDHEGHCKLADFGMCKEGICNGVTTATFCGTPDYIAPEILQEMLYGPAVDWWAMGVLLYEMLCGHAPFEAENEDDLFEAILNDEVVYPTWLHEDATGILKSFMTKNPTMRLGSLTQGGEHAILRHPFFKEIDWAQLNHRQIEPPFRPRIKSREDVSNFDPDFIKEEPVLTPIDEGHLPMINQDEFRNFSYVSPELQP
PTK2 (human), sequence (Q05397 whole entry, looked up): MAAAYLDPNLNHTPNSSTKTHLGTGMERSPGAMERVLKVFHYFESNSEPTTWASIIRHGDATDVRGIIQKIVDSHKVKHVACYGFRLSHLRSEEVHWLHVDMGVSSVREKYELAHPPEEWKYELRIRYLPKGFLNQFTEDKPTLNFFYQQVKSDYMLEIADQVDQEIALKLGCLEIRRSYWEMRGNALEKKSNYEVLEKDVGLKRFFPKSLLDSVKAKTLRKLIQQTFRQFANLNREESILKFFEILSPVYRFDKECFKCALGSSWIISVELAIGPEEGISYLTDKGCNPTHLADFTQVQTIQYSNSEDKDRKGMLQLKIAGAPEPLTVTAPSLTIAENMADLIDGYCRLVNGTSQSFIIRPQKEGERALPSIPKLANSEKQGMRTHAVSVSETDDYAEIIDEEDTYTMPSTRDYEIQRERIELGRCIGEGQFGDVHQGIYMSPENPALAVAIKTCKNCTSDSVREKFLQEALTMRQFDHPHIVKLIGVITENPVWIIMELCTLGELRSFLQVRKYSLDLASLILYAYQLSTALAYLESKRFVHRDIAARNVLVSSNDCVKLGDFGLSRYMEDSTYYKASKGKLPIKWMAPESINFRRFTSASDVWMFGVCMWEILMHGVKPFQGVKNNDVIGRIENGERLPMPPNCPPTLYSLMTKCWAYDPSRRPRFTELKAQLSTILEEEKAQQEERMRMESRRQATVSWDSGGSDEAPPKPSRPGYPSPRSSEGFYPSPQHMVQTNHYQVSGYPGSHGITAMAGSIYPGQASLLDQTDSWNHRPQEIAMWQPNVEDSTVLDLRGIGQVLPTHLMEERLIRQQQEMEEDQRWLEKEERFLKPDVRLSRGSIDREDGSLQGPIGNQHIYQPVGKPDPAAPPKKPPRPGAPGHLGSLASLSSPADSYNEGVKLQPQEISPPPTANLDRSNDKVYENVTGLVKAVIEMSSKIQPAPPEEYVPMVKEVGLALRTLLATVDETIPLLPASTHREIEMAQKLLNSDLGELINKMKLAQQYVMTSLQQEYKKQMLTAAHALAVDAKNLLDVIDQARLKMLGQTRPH
EPHA8 (human), sequence (P29322 whole entry, looked up): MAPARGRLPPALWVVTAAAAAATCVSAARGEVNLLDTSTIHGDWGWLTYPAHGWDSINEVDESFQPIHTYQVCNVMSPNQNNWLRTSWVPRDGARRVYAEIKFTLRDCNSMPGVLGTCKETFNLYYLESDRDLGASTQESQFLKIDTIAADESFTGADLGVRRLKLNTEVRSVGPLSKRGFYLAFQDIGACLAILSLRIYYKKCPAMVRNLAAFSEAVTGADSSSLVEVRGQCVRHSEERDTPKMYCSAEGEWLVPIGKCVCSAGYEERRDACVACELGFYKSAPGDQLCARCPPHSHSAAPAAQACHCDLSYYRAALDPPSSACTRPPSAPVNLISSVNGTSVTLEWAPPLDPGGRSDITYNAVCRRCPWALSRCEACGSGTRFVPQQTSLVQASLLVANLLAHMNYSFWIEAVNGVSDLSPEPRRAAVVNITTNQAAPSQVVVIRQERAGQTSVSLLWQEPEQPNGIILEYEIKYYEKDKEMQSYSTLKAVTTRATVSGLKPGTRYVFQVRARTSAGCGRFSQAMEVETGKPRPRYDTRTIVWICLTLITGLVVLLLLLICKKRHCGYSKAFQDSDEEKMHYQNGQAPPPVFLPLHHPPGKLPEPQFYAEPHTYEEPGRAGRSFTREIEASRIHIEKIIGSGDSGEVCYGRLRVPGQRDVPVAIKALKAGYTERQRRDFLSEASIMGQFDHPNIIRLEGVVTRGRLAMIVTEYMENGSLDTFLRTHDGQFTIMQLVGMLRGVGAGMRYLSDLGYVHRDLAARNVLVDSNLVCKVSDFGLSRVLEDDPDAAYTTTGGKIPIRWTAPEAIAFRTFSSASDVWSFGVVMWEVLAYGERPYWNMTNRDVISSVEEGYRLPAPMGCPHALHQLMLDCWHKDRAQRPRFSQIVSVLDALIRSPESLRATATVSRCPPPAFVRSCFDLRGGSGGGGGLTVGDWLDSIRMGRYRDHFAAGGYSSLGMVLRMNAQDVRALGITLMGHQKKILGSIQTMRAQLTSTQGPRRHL
MAP3K7 (human), sequence (O43318 whole entry, looked up): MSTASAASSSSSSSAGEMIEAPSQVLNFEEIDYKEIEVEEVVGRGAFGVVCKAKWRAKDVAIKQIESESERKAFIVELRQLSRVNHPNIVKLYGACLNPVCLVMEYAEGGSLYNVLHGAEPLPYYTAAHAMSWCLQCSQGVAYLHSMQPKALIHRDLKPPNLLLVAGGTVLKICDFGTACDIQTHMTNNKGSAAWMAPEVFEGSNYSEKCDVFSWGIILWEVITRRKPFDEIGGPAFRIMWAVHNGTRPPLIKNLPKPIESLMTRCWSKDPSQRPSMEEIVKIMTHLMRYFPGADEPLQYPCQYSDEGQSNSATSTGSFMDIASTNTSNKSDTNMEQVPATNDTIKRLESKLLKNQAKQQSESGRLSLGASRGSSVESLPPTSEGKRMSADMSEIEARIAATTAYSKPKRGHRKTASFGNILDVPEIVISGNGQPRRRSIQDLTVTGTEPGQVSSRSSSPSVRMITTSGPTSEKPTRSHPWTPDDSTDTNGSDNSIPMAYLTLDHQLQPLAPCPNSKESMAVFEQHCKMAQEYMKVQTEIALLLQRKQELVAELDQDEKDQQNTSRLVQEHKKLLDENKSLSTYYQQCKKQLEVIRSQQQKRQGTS

| kinase still bound, per cent of control (ACVR2B (human)) | kinase still bound, per cent of control (BTK (human)) | kinase still bound, per cent of control (CAMK4 (human)) | kinase still bound, per cent of control (CAMKK1 (human)) | kinase still bound, per cent of control (CDK2 (human)) | kinase still bound, per cent of control (CSNK1A1L (human)) | kinase still bound, per cent of control (EPHA2 (human)) | kinase still bound, per cent of control (EPHA8 (human)) | kinase still bound, per cent of control (FGR (human)) | kinase still bound, per cent of control (GSK3A (human)) | kinase still bound, per cent of control (ITK (human)) | kinase still bound, per cent of control [1] | kinase still bound, per cent of control (KIT (human)) | kinase still bound, per cent of control (LIMK2 (human)) | kinase still bound, per cent of control (MAP2K4 (human)) | kinase still bound, per cent of control (MAP4K1 (human)) | kinase still bound, per cent of control (MAPKAPK2 (human)) | kinase still bound, per cent of control (MARK3 (human)) | kinase still bound, per cent of control (MKNK1 (human)) | kinase still bound, per cent of control (MYLK2 (human)) | Compound | also measured |
| --- | --- | --- | --- | --- | --- | --- | --- | --- | --- | --- | --- | --- | --- | --- | --- | --- | --- | --- | --- | --- | --- |
| 100% | 100% | 100% | 100% | 100% | 100% | 1.6% | 0.3% | 23% | 100% | 100% | 100% | 0% | 100% | 100% | 100% | 100% | 100% | 100% | 100% | Cc1cn(-c2cc(C(=O)Nc3ccc(C)c(NC(=O)c4ccno4)c3)cc(C(F)(F)F)c2)cn1 | kinase still bound, per cent of control (CDKL5 (human)): 100%; kinase still bound, per cent of control (HIPK4 (human)): 100%; kinase still bound, per cent of control (MAP3K1 (human)): 100%; kinase still bound, per cent of control (MAP3K13 (human)): 100%; kinase still bound, per cent of control (MAP3K7 (human)): 100%; kinase still bound, per cent of control (MYLK3 (human)): 100%; kinase still bound, per cent of control (NEK6 (human)): 100%; kinase still bound, per cent of control (NUAK2 (human)): 100%; kinase still bound, per cent of control (PDGFRB (human)): 0%; kinase still bound, per cent of control (PIM2 (human)): 100%; kinase still bound, per cent of control (PKN1 (human)): 100%; kinase still bound, per cent of control (PRKCD (human)): 100%; kinase still bound, per cent of control (PRKCH (human)): 100%; kinase still bound, per cent of control (PTK2 (human)): 100%; kinase still bound, per cent of control (ROCK2 (human)): 100%; kinase still bound, per cent of control (RPS6KA3 KD1 (human)): 100%; kinase still bound, per cent of control (RPS6KA4 KD2 (human)): 100%; kinase still bound, per cent of control (RPS6KA6 KD1 (human)): 100% |
| 100% | 1.4% | 100% | 100% | 100% | 100% | 4.2% | 0% | 1.2% | 100% | 100% | 8.8% | 0.8% | 0% | 100% | 4.6% | 100% | 100% | 100% | 100% | COc1ccc(N(C(=O)Oc2cc(C(=O)Nc3cccc(C(F)(F)F)c3)ccc2C)c2ccnc(Nc3ccc(N4CCN(C)CC4)cc3)n2)c(OC)c1 | kinase still bound, per cent of control (MYLK3 (human)): 100%; kinase still bound, per cent of control (NEK6 (human)): 100%; kinase still bound, per cent of control (NUAK2 (human)): 100%; kinase still bound, per cent of control (PDGFRB (human)): 0.45%; kinase still bound, per cent of control (PIM2 (human)): 100%; kinase still bound, per cent of control (PKN1 (human)): 100%; kinase still bound, per cent of control (PRKCD (human)): 100%; kinase still bound, per cent of control (PRKCH (human)): 100%; kinase still bound, per cent of control (PTK2 (human)): 4.6%; kinase still bound, per cent of control (RPS6KA3 KD1 (human)): 100%; kinase still bound, per cent of control (RPS6KA4 KD2 (human)): 100%; kinase still bound, per cent of control (RPS6KA6 KD1 (human)): 100% |
| 100% | 2.6% | 100% | 100% | 100% | 100% | 25% | 100% | 100% | 100% | 0.25% | 100% | 100% | 100% | 100% | 25% | 100% | 100% | 100% | 100% | COc1cc(C)c(Sc2cnc(NC(=O)c3ccc(CNC(C)C(C)C)cc3)s2)cc1C(=O)N1CCN(C(C)=O)CC1 (stereo not drawn) | kinase still bound, per cent of control (MAP3K7 (human)): 100%; kinase still bound, per cent of control (MYLK3 (human)): 100%; kinase still bound, per cent of control (NEK6 (human)): 34%; kinase still bound, per cent of control (NUAK2 (human)): 25%; kinase still bound, per cent of control (PDGFRB (human)): 100%; kinase still bound, per cent of control (PIM2 (human)): 100%; kinase still bound, per cent of control (PKN1 (human)): 100%; kinase still bound, per cent of control (PRKCD (human)): 100%; kinase still bound, per cent of control (PRKCH (human)): 100%; kinase still bound, per cent of control (PTK2 (human)): 100%; kinase still bound, per cent of control (ROCK2 (human)): 100%; kinase still bound, per cent of control (RPS6KA3 KD1 (human)): 100%; kinase still bound, per cent of control (RPS6KA4 KD2 (human)): 100%; kinase still bound, per cent of control (RPS6KA6 KD1 (human)): 100% |
| 100% | 26% | 13% | 18% | 100% | 21% | 100% | 100% | 100% | 100% | 100% | 100% | 100% | 100% | 22% | 100% | 100% | 100% | 100% | 100% | COc1cc(N2CCC(C(N)=O)CC2)ccc1Nc1nc(N)c(Cl)c(Nc2ccccc2S(=O)(=O)C(C)C)n1 | kinase still bound, per cent of control (MAP3K7 (human)): 100%; kinase still bound, per cent of control (MYLK3 (human)): 100%; kinase still bound, per cent of control (NEK6 (human)): 100%; kinase still bound, per cent of control (NUAK2 (human)): 100%; kinase still bound, per cent of control (PDGFRB (human)): 100%; kinase still bound, per cent of control (PIM2 (human)): 100%; kinase still bound, per cent of control (PKN1 (human)): 100%; kinase still bound, per cent of control (PRKCD (human)): 100%; kinase still bound, per cent of control (PRKCH (human)): 100%; kinase still bound, per cent of control (PTK2 (human)): 0%; kinase still bound, per cent of control (ROCK2 (human)): 100%; kinase still bound, per cent of control (RPS6KA3 KD1 (human)): 100%; kinase still bound, per cent of control (RPS6KA4 KD2 (human)): 100%; kinase still bound, per cent of control (RPS6KA6 KD1 (human)): 100% |
